Active and inactive are the calls of the source. The calls are words filed in the database; no cut-off is given here.
Tests used:
[1] = Growth inhibition of mouse BAF3 cells measured after 72 hrs by CCK8 assay; type: cell-based
[2] = target: Mast/stem cell growth factor receptor Kit (Mus musculus) (UniProt P05532); assay: Inhibition of c-KIT in mouse BAF3(transformed) cells assessed as growth inhibition after 72 hrs by CCK8 assay
[3] = system: Mast/stem cell growth factor receptor Kit (Homo sapiens), P10721 [T670I]; conditions: Mus musculus
Sequence of Mast/stem cell growth factor receptor Kit (Homo sapiens), P10721 [T670I] (P10721 whole entry T670I): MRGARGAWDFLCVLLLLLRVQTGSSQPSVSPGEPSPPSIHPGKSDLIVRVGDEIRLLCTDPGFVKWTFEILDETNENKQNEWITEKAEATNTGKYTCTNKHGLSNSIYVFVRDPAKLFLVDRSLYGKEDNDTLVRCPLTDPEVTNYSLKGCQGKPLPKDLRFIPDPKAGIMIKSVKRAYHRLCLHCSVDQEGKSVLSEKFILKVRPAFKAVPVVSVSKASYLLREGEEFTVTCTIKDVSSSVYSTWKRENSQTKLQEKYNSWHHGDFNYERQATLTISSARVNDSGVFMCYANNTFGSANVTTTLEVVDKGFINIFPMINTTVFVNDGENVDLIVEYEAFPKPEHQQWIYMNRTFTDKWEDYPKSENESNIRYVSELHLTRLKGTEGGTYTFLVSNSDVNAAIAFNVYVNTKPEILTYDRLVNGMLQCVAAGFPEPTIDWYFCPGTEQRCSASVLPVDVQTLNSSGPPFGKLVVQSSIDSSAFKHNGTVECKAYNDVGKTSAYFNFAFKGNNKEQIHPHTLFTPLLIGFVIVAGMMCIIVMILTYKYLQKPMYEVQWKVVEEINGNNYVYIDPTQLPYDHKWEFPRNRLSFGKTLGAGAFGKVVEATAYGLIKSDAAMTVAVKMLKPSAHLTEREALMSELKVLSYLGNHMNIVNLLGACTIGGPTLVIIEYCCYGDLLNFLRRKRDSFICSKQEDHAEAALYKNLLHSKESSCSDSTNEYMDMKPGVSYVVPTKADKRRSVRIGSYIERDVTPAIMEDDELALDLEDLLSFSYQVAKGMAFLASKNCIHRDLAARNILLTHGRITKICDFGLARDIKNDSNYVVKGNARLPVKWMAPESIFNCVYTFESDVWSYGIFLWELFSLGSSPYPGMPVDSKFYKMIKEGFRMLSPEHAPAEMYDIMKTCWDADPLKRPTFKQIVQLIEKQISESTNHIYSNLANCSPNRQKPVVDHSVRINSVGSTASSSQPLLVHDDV
Description: Inhibition of c-KIT T670I mutant in mouse BAF3(transformed) cells assessed as growth inhibition after 72 hrs by CCK8 assay

[4] = target: T1, Platelet-derived growth factor receptor alpha (Homo sapiens, UniProt P16234); type: cell-based; conditions: GISTT1
T1 sequence (P16234 whole entry): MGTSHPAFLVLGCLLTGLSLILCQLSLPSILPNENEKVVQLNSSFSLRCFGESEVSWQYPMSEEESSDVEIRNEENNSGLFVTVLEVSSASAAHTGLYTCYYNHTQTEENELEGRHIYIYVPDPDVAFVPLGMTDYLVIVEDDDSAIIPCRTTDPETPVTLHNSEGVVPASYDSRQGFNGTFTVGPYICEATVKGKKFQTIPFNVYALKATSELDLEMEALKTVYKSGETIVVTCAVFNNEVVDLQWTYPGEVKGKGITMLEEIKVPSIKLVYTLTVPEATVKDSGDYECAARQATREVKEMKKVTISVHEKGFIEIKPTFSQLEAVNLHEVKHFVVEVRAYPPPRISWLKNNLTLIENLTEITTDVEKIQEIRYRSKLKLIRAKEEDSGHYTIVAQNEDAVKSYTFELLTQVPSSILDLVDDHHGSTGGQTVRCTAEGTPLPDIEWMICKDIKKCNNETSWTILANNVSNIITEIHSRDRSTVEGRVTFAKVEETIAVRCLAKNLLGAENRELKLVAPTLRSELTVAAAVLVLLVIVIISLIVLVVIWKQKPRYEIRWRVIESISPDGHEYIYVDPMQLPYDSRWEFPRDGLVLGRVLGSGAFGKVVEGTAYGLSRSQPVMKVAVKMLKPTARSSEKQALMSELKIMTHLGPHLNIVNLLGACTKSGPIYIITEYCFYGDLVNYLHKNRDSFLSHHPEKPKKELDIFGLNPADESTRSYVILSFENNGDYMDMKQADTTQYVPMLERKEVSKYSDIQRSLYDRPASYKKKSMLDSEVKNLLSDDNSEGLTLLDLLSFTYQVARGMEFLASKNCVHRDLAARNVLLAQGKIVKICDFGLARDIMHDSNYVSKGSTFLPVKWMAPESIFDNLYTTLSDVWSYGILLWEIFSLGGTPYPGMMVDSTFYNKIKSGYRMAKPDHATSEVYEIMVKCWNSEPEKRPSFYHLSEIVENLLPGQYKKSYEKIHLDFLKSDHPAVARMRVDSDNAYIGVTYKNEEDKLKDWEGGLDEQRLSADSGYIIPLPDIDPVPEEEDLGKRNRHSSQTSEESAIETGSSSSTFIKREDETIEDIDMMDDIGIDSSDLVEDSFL

[5] = target: T1, Platelet-derived growth factor receptor alpha; type: cell-based; conditions: GISTT1; remark: listed apart in the source
[6] = target: T1, Platelet-derived growth factor receptor alpha; type: cell-based; conditions: GISTT1; remark: listed apart in the source
[7] = target: T1, Platelet-derived growth factor receptor alpha; type: cell-based; conditions: GISTT1; remark: listed apart in the source
[8] = target: T1, Platelet-derived growth factor receptor alpha; type: cell-based; conditions: GISTT1; remark: listed apart in the source
[9] = target: T1, Platelet-derived growth factor receptor alpha; type: cell-based; conditions: GISTT1; remark: listed apart in the source
[10] = target: T1, Platelet-derived growth factor receptor alpha; type: cell-based; conditions: GISTT1; remark: listed apart in the source
[11] = system: GISTT1; type: functional, cell-based; conditions: Homo sapiens
[12] = species: Mus musculus; assay: Inhibition of c-KIT V654A/V559D double mutant in mouse BAF3(transformed) cells assessed as growth inhibition after 72 hrs by CCK8 assay
[13] = species: Mus musculus; assay: Inhibition of c-KIT T670E mutant in mouse BAF3(transformed) cells assessed as growth inhibition after 72 hrs by CCK8 assay
[14] = species: Mus musculus; assay: Inhibition of c-KIT T670I/V559D double mutant in mouse BAF3(transformed) cells assessed as growth inhibition after 72 hrs by CCK8 assay
[15] = species: Mus musculus; assay: Inhibition of c-KIT S709F mutant in mouse BAF3(transformed) cells assessed as growth inhibition after 72 hrs by CCK8 assay
[16] = species: Mus musculus; assay: Inhibition of c-KIT D816E mutant in mouse BAF3(transformed) cells assessed as growth inhibition after 72 hrs by CCK8 assay
[17] = species: Mus musculus; assay: Inhibition of c-KIT D820G mutant in mouse BAF3(transformed) cells assessed as growth inhibition after 72 hrs by CCK8 assay
[18] = Growth inhibition of human GIST48B cells after 72 hrs by CCK8 assay; type: functional
[19] = system: GISTT1; type: functional, Homo sapiens; conditions: Mus musculus, GISTT1, po, 672 h; read-out: TGI
[20] = system: GISTT1; type: functional, Homo sapiens
[21] = system: Mast/stem cell growth factor receptor Kit (Homo sapiens), P10721 [V559A]; conditions: Mus musculus
Sequence of Mast/stem cell growth factor receptor Kit (Homo sapiens), P10721 [V559A] (P10721 whole entry V559A): as the sequence (P10721 whole entry T670I) above, with V559A, I670T counted along it
Description: Inhibition of c-KIT V559A mutant in mouse BAF3(transformed) cells assessed as growth inhibition after 72 hrs by CCK8 assay

[22] = system: Mast/stem cell growth factor receptor Kit (Homo sapiens), P10721 [V559G]; conditions: Mus musculus
Sequence of Mast/stem cell growth factor receptor Kit (Homo sapiens), P10721 [V559G] (P10721 whole entry V559G): as the sequence (P10721 whole entry T670I) above, with V559G, I670T counted along it
Description: Inhibition of c-KIT V559G mutant in mouse BAF3(transformed) cells assessed as growth inhibition after 72 hrs by CCK8 assay

[23] = system: Mast/stem cell growth factor receptor Kit (Homo sapiens), P10721 [D820Y]; conditions: Mus musculus
Sequence of Mast/stem cell growth factor receptor Kit (Homo sapiens), P10721 [D820Y] (P10721 whole entry D820Y): as the sequence (P10721 whole entry T670I) above, with I670T, D820Y counted along it
Description: Inhibition of c-KIT D820Y mutant in mouse BAF3(transformed) cells assessed as growth inhibition after 72 hrs by CCK8 assay

[24] = system: Mast/stem cell growth factor receptor Kit (Homo sapiens), P10721 [Y823D]; conditions: Mus musculus
Sequence of Mast/stem cell growth factor receptor Kit (Homo sapiens), P10721 [Y823D] (P10721 whole entry Y823D): as the sequence (P10721 whole entry T670I) above, with I670T, Y823D counted along it
Description: Inhibition of c-KIT Y823D mutant in mouse BAF3(transformed) cells assessed as growth inhibition after 72 hrs by CCK8 assay

[25] = system: Mast/stem cell growth factor receptor Kit (Homo sapiens), P10721 [UNDEFINED MUTATION]; conditions: GISTT1
Sequence of Mast/stem cell growth factor receptor Kit (Homo sapiens), P10721 [UNDEFINED MUTATION] (P10721 whole entry, looked up, stated change not applied): as the sequence (P10721 whole entry T670I) above, with I670T counted along it
Description: Inhibition of c-KIT 560 to 578 deletion mutant in human GISTT1 cells assessed as growth inhibition after 72 hrs by CCK8 assay

[26] = system: Mast/stem cell growth factor receptor Kit (Homo sapiens), P10721 [K642E]
Sequence of Mast/stem cell growth factor receptor Kit (Homo sapiens), P10721 [K642E] (P10721 whole entry K642E): as the sequence (P10721 whole entry T670I) above, with K642E, I670T counted along it

Sequence of Mast/stem cell growth factor receptor Kit (Mus musculus) (P05532 whole entry): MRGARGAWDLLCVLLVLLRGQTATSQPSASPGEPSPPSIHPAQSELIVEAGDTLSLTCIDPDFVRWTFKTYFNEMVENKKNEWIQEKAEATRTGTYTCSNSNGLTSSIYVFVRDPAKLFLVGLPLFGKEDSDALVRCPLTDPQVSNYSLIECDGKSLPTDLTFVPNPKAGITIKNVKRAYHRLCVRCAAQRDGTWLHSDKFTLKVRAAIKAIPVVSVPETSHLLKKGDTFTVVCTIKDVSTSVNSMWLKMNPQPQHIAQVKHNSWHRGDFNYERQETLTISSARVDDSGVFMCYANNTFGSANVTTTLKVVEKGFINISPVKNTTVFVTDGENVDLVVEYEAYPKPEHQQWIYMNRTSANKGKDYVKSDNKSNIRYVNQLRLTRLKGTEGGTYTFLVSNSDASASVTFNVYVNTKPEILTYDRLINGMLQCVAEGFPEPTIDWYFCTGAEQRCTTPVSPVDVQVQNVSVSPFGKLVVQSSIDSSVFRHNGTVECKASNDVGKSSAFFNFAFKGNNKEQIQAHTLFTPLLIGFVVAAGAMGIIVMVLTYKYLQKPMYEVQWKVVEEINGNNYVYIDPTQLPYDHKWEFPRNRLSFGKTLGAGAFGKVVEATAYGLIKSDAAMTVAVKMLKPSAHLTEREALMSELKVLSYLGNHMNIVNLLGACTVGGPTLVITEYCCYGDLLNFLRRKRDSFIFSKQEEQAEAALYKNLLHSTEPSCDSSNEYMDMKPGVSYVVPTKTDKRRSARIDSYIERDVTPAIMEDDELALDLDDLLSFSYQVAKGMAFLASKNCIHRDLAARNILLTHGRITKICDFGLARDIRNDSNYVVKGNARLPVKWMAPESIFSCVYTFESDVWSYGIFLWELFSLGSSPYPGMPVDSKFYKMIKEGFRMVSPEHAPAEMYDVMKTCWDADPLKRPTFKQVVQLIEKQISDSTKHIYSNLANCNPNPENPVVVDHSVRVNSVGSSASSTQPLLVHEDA

COc1cc2nccc(Oc3ccc(NC(=O)Cc4ccc(Cl)c(C(F)(F)F)c4)cc3C#N)c2cc1OC
GI50 at 72 h [1]: 9970 nM
GI50 [2]: 989 nM
GI50 [3]: 210 nM

COc1cc2nccc(Oc3ccc(NC(=O)Cc4ccccc4)cc3)c2cc1OC
GI50 at 72 h [1]: > 10000 nM
GI50 [2]: > 10000 nM
GI50 [3]: > 10000 nM

CCC(=O)NCC1CCN(c2ccc(NC(=O)Nc3cccc(Oc4ccnc5cc(OC)c(OC)cc45)c3)cc2C(F)(F)F)CC1
GI50 at 72 h [1]: > 10000 nM
GI50 [2]: 57 nM

COc1cc2nccc(Oc3ccc(NC(=O)CC4CCCCC4)cc3)c2cc1OC
GI50 at 72 h [1]: 2470 nM
GI50 [2]: 635 nM
GI50 [3]: 362 nM

COc1ccc(CC(=O)Nc2ccc(Oc3ccnc4cc(OC)c(OC)cc34)cc2)cc1OC
GI50 at 72 h [1]: 4130 nM
GI50 [2]: 319 nM
GI50 [3]: 179 nM

COc1cc2nccc(Oc3ccc(NC(=O)Cc4c(F)cccc4F)cc3)c2cc1OC
GI50 at 72 h [1]: 1930 nM
GI50 [2]: 2780 nM
GI50 [3]: 1700 nM

COc1cc2nccc(Oc3ccc(NC(=O)Cc4cccc(C(F)(F)F)c4)cc3)c2cc1OC
GI50 at 72 h [1]: 1890 nM
GI50 [2]: 20 nM
GI50 [3]: 1 nM

COc1cc2nccc(Oc3ccc(NC(=O)Cc4ccc(Cl)c(C(F)(F)F)c4)cc3OC)c2cc1OC
GI50 at 72 h [1]: 8480 nM
GI50 [2]: 34 nM
GI50 [3]: 1560 nM

COc1cc2nccc(Oc3ccc(NC(=O)Cc4ccccc4C(F)(F)F)cc3)c2cc1OC
GI50 at 72 h [1]: 6700 nM
GI50 [2]: 424 nM
GI50 [3]: 309 nM

COc1cc2nccc(Oc3ccc(NC(=O)Cc4ccc(C)c(C(F)(F)F)c4)cc3)c2cc1OC
GI50 at 72 h [1]: 7260 nM
GI50 [2]: 17 nM
GI50 [3]: 14 nM

COc1cc2nccc(Oc3ccc(NC(=O)Cc4ccc(Cl)c(C(F)(F)F)c4)c(Cl)c3)c2cc1OC
GI50 at 72 h [1]: 8220 nM
GI50 [2]: 81 nM
GI50 [3]: 70 nM

COc1cc2nccc(Oc3ccc(NC(=O)Cc4ccc(C)c(C)c4)cc3)c2cc1OC
GI50 at 72 h [1]: 6420 nM
GI50 [2]: 27 nM
GI50 [3]: 15 nM

COc1cc2nccc(Oc3ccc(NC(=O)Cc4ccncc4)cc3)c2cc1OC
GI50 at 72 h [1]: 5130 nM
GI50 [2]: 4710 nM
GI50 [3]: 6990 nM

COc1cc2nccc(Nc3ccc(NC(=O)Cc4ccc(Cl)c(C(F)(F)F)c4)cc3)c2cc1OC
GI50 at 72 h [1]: 2210 nM
GI50 [2]: 742 nM
GI50 [3]: 400 nM

COc1cc2nccc(Oc3ccc(NC(=O)CN4CCN(C)CC4)cc3)c2cc1OC
GI50 at 72 h [1]: 8700 nM
GI50 [2]: 7330 nM
GI50 [3]: 8520 nM

COc1cc2nccc(N(C)c3ccc(NC(=O)Cc4ccc(Cl)c(C(F)(F)F)c4)cc3)c2cc1OC
GI50 at 72 h [1]: 2670 nM
GI50 [2]: 4280 nM
GI50 [3]: 8460 nM

COc1cccc(CC(=O)Nc2ccc(Oc3ccnc4cc(OC)c(OC)cc34)cc2)c1
GI50 at 72 h [1]: 2780 nM
GI50 [2]: 293 nM
GI50 [3]: 339 nM

COc1cc2nccc(Oc3ccc(NC(=O)Cc4ccc(F)cc4F)cc3)c2cc1OC
GI50 at 72 h [1]: 704 nM
GI50 [2]: 40 nM
GI50 [3]: 285 nM

COc1cc2nccc(Oc3ccc(C(=O)NCc4ccc(C(F)(F)F)cc4)cc3)c2cc1OC
GI50 at 72 h [1]: 6180 nM
GI50 [2]: 2900 nM
GI50 [3]: 668 nM

COc1cc2nccc(Oc3ccc(NC(=O)Cc4ccc(Cl)c(C(F)(F)F)c4)cc3C(F)(F)F)c2cc1OC
GI50 at 72 h [1]: 2920 nM
GI50 [2]: 3000 nM
GI50 [3]: 2840 nM

COc1cc2nccc(Oc3ccc(NC(=O)Cc4ccc(Cl)c(C(F)(F)F)c4)cc3F)c2cc1OC
GI50 at 72 h [1]: 1990 nM
GI50 [2]: 116 nM
GI50 [3]: 21 nM

COc1cc2nccc(Oc3ccc(NC(=O)Cc4ccc(Cl)c(C(F)(F)F)c4)cc3Cl)c2cc1OC
GI50 at 72 h [1]: 9450 nM
GI50 [2]: 78 nM
GI50 [3]: 56 nM

COc1cc2nccc(Oc3ccc(NC(=O)Cc4ccc(C(F)(F)F)cc4)cc3)c2cc1OC
GI50 at 72 h [1]: 2160 nM
GI50 [2]: 22 nM
GI50 [3]: 11 nM

COc1cc2nccc(Oc3ccc(NC(=O)C4(c5ccccc5)CC4)cc3)c2cc1OC
GI50 at 72 h [1]: > 10000 nM
GI50 [2]: > 10000 nM
GI50 [3]: > 10000 nM

COc1cc2nccc(Sc3ccc(NC(=O)Cc4ccc(Cl)c(C(F)(F)F)c4)cc3)c2cc1OC
GI50 at 72 h [1]: 3090 nM
GI50 [2]: 154 nM
GI50 [3]: 110 nM

COc1cc2nccc(Oc3ccc(NC(=O)Cc4ccc(Cl)c(C(F)(F)F)c4)c(F)c3)c2cc1OC
GI50 at 72 h [1]: 3210 nM
GI50 [2]: 49 nM
GI50 [3]: 18 nM

COc1cc2nccc(Oc3ccc(NC(=O)Cc4ccc(F)c(F)c4)cc3)c2cc1OC
GI50 at 72 h [1]: 670 nM
GI50 [2]: 312 nM
GI50 [3]: 309 nM

COc1cc2nccc(Oc3ccc(NC(=O)Cc4ccc(Cl)c(C(F)(F)F)c4)c(C)c3)c2cc1OC
GI50 at 72 h [1]: 4860 nM
GI50 [2]: 61 nM
GI50 [3]: 75 nM

COc1cc2nccc(Oc3ccc(NC(=O)Cc4ccc5c(c4)OCO5)cc3)c2cc1OC
GI50 at 72 h [1]: 3100 nM
GI50 [2]: 110 nM
GI50 [3]: 167 nM

COc1cc2nccc(Oc3ccc(NC(=O)Cc4ccc(Cl)c(C(F)(F)F)c4)cc3C)c2cc1OC
GI50 at 72 h [1]: 7050 nM
GI50 [2]: 105 nM
GI50 [3]: 9 nM

Cc1ccc(NC(=O)c2ccc(CN(CCN(C)C)C(=O)c3ccccn3)cc2)cc1Nc1nccc(-c2cccnc2)n1
inhibition [4]: Active
inhibition [5]: Active
inhibition [6]: Active
inhibition [7]: Active
inhibition [8]: Active
inhibition [9]: Active
inhibition [10]: Active
Activity [11]: Active

COc1cc2nccc(Oc3ccc(NC(=O)Cc4ccc5ccccc5c4)cc3)c2cc1OC
GI50 at 72 h [1]: 6230 nM
GI50 [2]: 112 nM
GI50 [3]: 34 nM

Cc1ccc(NC(=O)c2ccc(CN3CCN(C)CC3)cc2)cc1Nc1nccc(-c2cccnc2)n1 [IMATINIB]
GI50 at 72 h [1]: > 10000 nM
GI50 [2]: 350 nM
GI50 [12]: 608 nM
GI50 [13]: 4080 nM
GI50 [14]: > 10000 nM
GI50 [15]: 115 nM
GI50 [16]: 174 nM
GI50 [17]: 337 nM
GI50 [18]: > 10000 nM
Activity [11]: Active
inhibition in vivo at 100 mg/kg/day [19]: 66.4%
Activity [20]: 1.54 g
GI50 [21]: 905 nM
GI50 [22]: 8 nM
GI50 [23]: 435 nM
GI50 [24]: 5870 nM
GI50 [25]: 15 nM
GI50 [26]: 48 nM

COc1cc2nccc(Oc3ccc(NC(=O)Cc4ccc(Cl)c(Cl)c4)cc3)c2cc1OC
GI50 at 72 h [1]: 2030 nM
GI50 [2]: 342 nM
GI50 [3]: 37 nM

COc1cc2nccc(Oc3ccc(C(=O)NCc4cccc(C(F)(F)F)c4)cc3)c2cc1OC
GI50 at 72 h [1]: 10000 nM
GI50 [2]: 2350 nM
GI50 [3]: 4610 nM

COc1cc2nccc(Oc3ccc(NC(=O)Cc4ccc(F)c(C(F)(F)F)c4)cc3)c2cc1OC
GI50 at 72 h [1]: 1030 nM
GI50 [2]: 24 nM
GI50 [3]: 13 nM

COc1cc2nccc(Oc3ccc(NC(=O)Cc4cccc(F)c4)cc3)c2cc1OC
GI50 at 72 h [1]: 1000 nM
GI50 [2]: 923 nM
GI50 [3]: 342 nM

Source: ChEMBL document CHEMBL4359837, “Discovery of 2-(4-Chloro-3-(trifluoromethyl)phenyl)-N-(4-((6,7-dimethoxyquinolin-4-yl)oxy)phenyl)acetamide (CHMFL-KIT-64) as a Novel Orally Available Potent Inhibitor against Broad-Spectrum Mutants of c-KIT Kinase for Gastrointestinal Stromal Tumors” (J Med Chem, 2019)
